Publication PMC6421522, “Designing Dual Inhibitors of Anaplastic Lymphoma Kinase (ALK) and Bromodomain-4 (BRD4) by Tuning Kinase Selectivity” (Journal of Medicinal Chemistry, 2019)

Key:
[1] = biological target: T1, ALK^F1174L (Homo sapiens, UniProt Q9UM73, F1174L); assay: LanthaScreen Eu kinase binding assay
T1 construct: purchased Carna Biosciences

[2] = biological target: T2, PLK-1 (Homo sapiens, UniProt P53350); assay: PLK-1 Z-LYTE activity assay (SelectScreen); type: biochemical; conditions: for fold decrease of PLK-1 activity/potency: relative to starting compound BI-2536
T2 construct: purchased Thermo Fisher Scientific (SelectScreen service)

[3] = biological target: ALK WT (Homo sapiens, UniProt Q9UM73); assay: Biochemical ALK WT IC50; type: binding; conditions: geometric mean
[4] = tested on: HeLa cells; assay: Mitotic arrest and mitotic markers in HeLa cells (Western blot); type: cell-based; conditions: HeLa cells, Western blot
Method: Protein extracts of cells were prepared by lysis in radioimmunoprecipitation assay buffer (Sigma) supplemented with protease inhibitors (complete protease inhibitor cocktail, Roche). Protein extracts (25 μg) were separated by sodium dodecyl sulfate-polyacrylamide gel electrophoresis and transferred onto poly(vinylidene difluoride) membranes using the Trans-Blot Turbo transfer system (BioRad). After blocking with 5% bovine serum albumin in PBS with 0.1% Tween-20 for 30 min, the membrane was incubated with primary antibodies for 1 h at room temperature. Horseradish peroxidase-linked secondary antibodies were incubated 30 min at room temperature followed by enhanced chemiluminescence (ECL) detection (ECL Western blot substrate, Pierce).
Primary antibodies were obtained from the following sources: PLK-1 (05-844) and phosphohistone H3 (Ser10) (05806) from Millipore; pPlk1-T210 (5472) from Cell Signaling; pPlk1-S137 (21738) from Abcam; and cyclin B1 (GNS1) and β-actin (A2228) from Sigma-Aldrich served as loading control.

T2 sequence (P53350 whole entry): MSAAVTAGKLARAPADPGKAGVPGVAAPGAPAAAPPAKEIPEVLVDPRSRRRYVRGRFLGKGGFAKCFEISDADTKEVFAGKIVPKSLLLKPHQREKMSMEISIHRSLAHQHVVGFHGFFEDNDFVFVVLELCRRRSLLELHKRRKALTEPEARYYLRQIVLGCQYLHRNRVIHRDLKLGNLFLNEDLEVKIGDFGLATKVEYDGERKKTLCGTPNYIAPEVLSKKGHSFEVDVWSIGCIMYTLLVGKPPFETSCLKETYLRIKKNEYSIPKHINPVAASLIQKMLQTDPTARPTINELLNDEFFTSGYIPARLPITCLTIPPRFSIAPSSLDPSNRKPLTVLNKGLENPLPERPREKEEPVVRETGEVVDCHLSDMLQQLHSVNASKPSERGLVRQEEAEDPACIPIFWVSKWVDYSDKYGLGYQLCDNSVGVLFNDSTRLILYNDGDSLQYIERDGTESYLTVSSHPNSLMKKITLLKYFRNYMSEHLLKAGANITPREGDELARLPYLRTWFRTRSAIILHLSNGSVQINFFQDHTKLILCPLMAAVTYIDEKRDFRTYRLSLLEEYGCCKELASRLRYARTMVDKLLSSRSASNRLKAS
T1 sequence (Q9UM73 19-1620 F1174L): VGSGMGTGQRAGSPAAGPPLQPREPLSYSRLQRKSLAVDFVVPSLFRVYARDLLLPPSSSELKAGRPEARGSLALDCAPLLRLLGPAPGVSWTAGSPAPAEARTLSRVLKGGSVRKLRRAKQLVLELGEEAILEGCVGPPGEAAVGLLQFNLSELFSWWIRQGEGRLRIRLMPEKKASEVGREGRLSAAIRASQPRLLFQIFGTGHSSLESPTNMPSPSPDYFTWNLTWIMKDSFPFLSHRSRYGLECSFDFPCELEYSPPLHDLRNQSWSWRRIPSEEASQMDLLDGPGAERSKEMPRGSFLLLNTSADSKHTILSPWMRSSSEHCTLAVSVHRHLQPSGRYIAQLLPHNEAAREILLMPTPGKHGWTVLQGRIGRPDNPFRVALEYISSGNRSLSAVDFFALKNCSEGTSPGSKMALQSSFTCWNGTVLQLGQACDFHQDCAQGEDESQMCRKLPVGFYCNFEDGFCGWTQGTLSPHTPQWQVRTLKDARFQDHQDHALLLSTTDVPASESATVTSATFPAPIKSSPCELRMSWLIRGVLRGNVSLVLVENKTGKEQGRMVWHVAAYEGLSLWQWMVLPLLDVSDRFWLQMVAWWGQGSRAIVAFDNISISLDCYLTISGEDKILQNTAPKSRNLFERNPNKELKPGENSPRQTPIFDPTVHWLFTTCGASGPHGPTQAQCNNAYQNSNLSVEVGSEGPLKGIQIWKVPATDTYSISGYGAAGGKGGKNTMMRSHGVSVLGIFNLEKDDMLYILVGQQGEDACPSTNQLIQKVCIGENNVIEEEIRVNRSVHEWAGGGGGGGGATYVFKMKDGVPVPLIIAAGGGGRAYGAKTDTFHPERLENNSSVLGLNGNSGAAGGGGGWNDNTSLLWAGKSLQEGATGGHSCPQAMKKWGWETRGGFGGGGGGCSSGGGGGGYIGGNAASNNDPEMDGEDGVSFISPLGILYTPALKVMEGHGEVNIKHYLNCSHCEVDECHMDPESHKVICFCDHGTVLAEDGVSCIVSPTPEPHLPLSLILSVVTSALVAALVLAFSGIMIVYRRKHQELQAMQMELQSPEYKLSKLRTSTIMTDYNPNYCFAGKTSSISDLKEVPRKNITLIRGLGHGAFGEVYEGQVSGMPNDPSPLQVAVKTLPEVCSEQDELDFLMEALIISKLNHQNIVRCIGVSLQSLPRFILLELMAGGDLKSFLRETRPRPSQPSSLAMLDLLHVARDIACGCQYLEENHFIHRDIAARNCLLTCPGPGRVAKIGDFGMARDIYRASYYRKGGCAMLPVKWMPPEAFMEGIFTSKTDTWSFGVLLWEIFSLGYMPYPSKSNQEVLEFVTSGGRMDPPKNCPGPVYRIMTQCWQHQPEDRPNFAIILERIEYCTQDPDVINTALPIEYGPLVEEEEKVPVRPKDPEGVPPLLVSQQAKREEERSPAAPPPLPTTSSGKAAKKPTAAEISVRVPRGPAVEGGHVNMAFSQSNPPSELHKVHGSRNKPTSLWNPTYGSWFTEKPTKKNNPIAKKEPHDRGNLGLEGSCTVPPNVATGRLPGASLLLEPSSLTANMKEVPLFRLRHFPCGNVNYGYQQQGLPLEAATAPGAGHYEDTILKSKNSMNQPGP
Sequence of ALK WT (Q9UM73 19-1620): as the sequence (Q9UM73 19-1620 F1174L) above, with L1156F counted along it

| Compound | fold decrease of PLK-1 activity/potency [2] | further results |
| --- | --- | --- |
| CCOc1cc(C(=O)NC2CCN(C)CC2)ccc1Nc1ncc2c(n1)N(C1CCCC1)CC(=O)N2C [16e, 4-((8-Cyclopentyl-5-methyl-6-oxo-5,6,7,8-tetrahydropteridin-2-yl)amino)-3-ethoxy-N-(1-methylpiperidin-4-yl)benzamide] | – | fold reduction of ALK^F1174L potency ([1]; on removal of the (R)-Et group): 3 fold |
| CCOc1cc(C(=O)NC2CCN(C)CC2)ccc1Nc1ncc2c(n1)N(Cc1cccc(Br)c1)[C@H](CC)C(=O)N2C [16f, (R)-4-((8-(3-Bromobenzyl)-7-ethyl-5-methyl-6-oxo-5,6,7,8-tetrahydropteridin-2-yl)amino)-3-ethoxy-N-(1-methylpiperidin-4-yl)benzamide] | 30–40 fold | – |
| CC[C@@H]1C(=O)N(C)c2cnc(Nc3ccc(C4CCN(C)CC4)cc3OC)nc2N1C1CCCC1 [16a, (R)-8-Cyclopentyl-7-ethyl-2-((2-methoxy-4-(1-methylpiperidin-4-yl)phenyl)amino)-5-methyl-7,8-dihydropteridin-6(5H)-one] | four-fold | – |
| CCOc1cc(C2CCN(C)CC2)ccc1Nc1ncc2c(n1)N(Cc1sccc1C)[C@H](CC)C(=O)N2C [16j, (R)-2-((2-Ethoxy-4-(1-methylpiperidin-4-yl)phenyl)amino)-7-ethyl-5-methyl-8-((3-methylthiophen-2-yl)methyl)-7,8-dihydropteridin-6(5H)-one] | – | IC50 [3]: 89 ± 4 nM |
| CCOc1cc(C2CCN(C)CC2)ccc1Nc1ncc2c(n1)N(Cc1ccccc1)[C@H](CC)C(=O)N2C [16i, (R)-8-Benzyl-2-((2-ethoxy-4-(1-methylpiperidin-4-yl)phenyl)amino)-7-ethyl-5-methyl-7,8-dihydropteridin-6(5H)-one] | 100–200 fold | fold increase in ALK^F1174L potency [1]: 2 fold; IC50 [3]: 120 ± 11 nM |
| CC[C@@H]1C(=O)N(C)c2cnc(Nc3ccc(C(=O)NC4CCN(C)CC4)cc3OC)nc2N1C1CCCC1 [BI-2536, reference compound] | – | concentration inducing mitotic arrest and increased PLK-1, cyclin B1, phosphohistone H3 [4]: ≤ 50 nM |
| CCOc1cc(C(=O)NC2CCN(C)CC2)ccc1Nc1ncc2c(n1)N(Cc1ccccc1)[C@H](CC)C(=O)N2C [16g, (R)-4-((8-Benzyl-7-ethyl-5-methyl-6-oxo-5,6,7,8-tetrahydropteridin-2-yl)amino)-3-ethoxy-N-(1-methylpiperidin-4-yl)benzamide] | 30–40 fold | – |
| CCOc1cc(C2CCN(C)CC2)ccc1Nc1ncc2c(n1)N(Cc1cccc(C#N)c1)[C@H](CC)C(=O)N2C [23b, (R)-3-((2-((2-Ethoxy-4-(1-methylpiperidin-4-yl)phenyl)amino)-7-ethyl-5-methyl-6-oxo-6,7-dihydropteridin-8(5H)-yl)methyl)benzonitrile] | > 700 fold | ALK selectivity over PLK-1 ([2]; biochemical IC50s ALK^F1174L vs PLK-1): 5 fold |
| CCOc1cc(C2CCN(C)CC2)ccc1Nc1ncc2c(n1)N(Cc1cccc(Br)c1)[C@H](CC)C(=O)N2C [16h, (R)-8-(3-Bromobenzyl)-2-((2-ethoxy-4-(1-methylpiperidin-4-yl)phenyl)amino)-7-ethyl-5-methyl-7,8-dihydropteridin-6(5H)-one] | 100–200 fold | – |
